{"source": "patent US20020168426A1", "about": "“Composition comprising extracts of flos lonicerae, fructus forsythiae and radix scutellariae, uses and preparation thereof” (priority 2000, published 2002)", "key": {"[1]": {"tested_on": "ileum contraction induced by histamine", "assay": "Anti-anaphylaxis test: histamine-induced contraction of isolated ileum", "design": "species or system guinea pig", "method": "A three-color guinea pig was used in the following experiment. The extracts of Flos Lonicerae, Fructus Forsythiae and Radix Scutellariae, both with supercritical fluid extraction and with subboiling aqueous extraction, were used as test drugs. Ebalin, an antihistamine, was used as the control drug.\nThe ileum of a guinea pig was taken and hung on a Magnus' bath. The basic contraction frequency of the ileum was recorded with the MacLab method. There was a total of four groups involved in this experiment: the histamine alone, the histamine plus Ebalin, the histamine plus the supercritical extract of Flos Lonicerae, Fructus Forsythiae and Radix Scutellariae, and the histamine plus sub-boiling aqueous extract. The test curves were respectively recorded after the administration of the histamine and the other test drugs. The inhibitory rate and exciting rate were calculated with the following formula: [formula]"}, "Influenza A": {"tested_on": "Influenza A", "assay": "Inhibitory effect for virus, Cytopathic Effect (CPE) method, monolayer Holn cells", "format": "cell-based", "design": "key: “−”: Virus proliferation was inhibited and no pathologic change was found in the cells.; “+”: The cell had pathologic change"}, "ADV3": {"tested_on": "ADV3", "assay": "Inhibitory effect for virus, Cytopathic Effect (CPE) method, monolayer Holn cells", "format": "cell-based", "design": "key: “−”: Virus proliferation was inhibited and no pathologic change was found in the cells.; “+”: The cell had pathologic change"}, "RSV [2]": {"tested_on": "RSV", "assay": "Inhibitory effect for virus, Cytopathic Effect (CPE) method, monolayer Holn cells", "format": "cell-based", "design": "key: “−”: Virus proliferation was inhibited and no pathologic change was found in the cells.; “+”: The cell had pathologic change"}, "HSV-II": {"tested_on": "HSV-II", "assay": "Inhibitory effect for virus, Cytopathic Effect (CPE) method, monolayer Holn cells", "format": "cell-based", "design": "key: “−”: Virus proliferation was inhibited and no pathologic change was found in the cells.; “+”: The cell had pathologic change"}, "Influenza virus A3": {"tested_on": "Influenza virus A3", "assay": "Anti-virus test: inhibition of virus-induced cytopathy in Hep-2 cells", "format": "cell-based", "details": "125 μg/ml"}, "[3]": {"tested_on": "parainfluenza virus I (HVJ)", "assay": "Anti-virus test: inhibition of virus-induced cytopathy in Hep-2 cells", "format": "cell-based", "details": "125 μg/ml"}, "RSV [4]": {"tested_on": "RSV", "assay": "Anti-virus test: inhibition of virus-induced cytopathy in Hep-2 cells", "format": "cell-based", "details": "125 μg/ml"}, "herpes I virus (HSV-I)": {"tested_on": "herpes I virus (HSV-I)", "assay": "Anti-virus test: inhibition of virus-induced cytopathy in Hep-2 cells", "format": "cell-based", "details": "125 μg/ml"}, "[5]": {"tested_on": "Virus Pneumonia induced by influenza", "assay": "Anti-virus test in vivo: Virus Pneumonia induced by influenza", "design": "species or system Mice", "details": "dosage 0.07 g/kg", "description": "B. Anti-virus test in vivo"}}, "note": "Structures can show the parent of a compound that is named as a salt.", "data": [{"smiles": "CN(C)CCC(c1ccc(Br)cc1)c1ccccn1.O=C(O)/C=C\\C(=O)O", "note": "(stereo not shown) [Ebalin]", "values": [{"measurement": "Ileum contraction with histamine plus test drug", "setting": "[1]; Table 13: histamine 3.3 × 10^−6 g/ml + test drug 1 × 10^−3 g/ml, histamine alone 271 ± 42", "result": "181 ± 32", "unit": "%"}, {"measurement": "Ileum contraction with histamine plus test drug", "setting": "[1]; Table 14: histamine 3.3 × 10^−6 g/ml + 1 × 10^−6 g/ml, histamine alone 235.29 ± 35.30", "result": "133.81 ± 405.5", "unit": "%"}]}, {"smiles": "N=C(N)/N=C(\\N)N1CCOCC1", "note": "[Moroxydine hydrochloride]", "values": [{"measurement": "Inhibitory effect for the virus (CPE)", "setting": "Influenza A; 1%, 10 mg/ml", "result": "+"}, {"measurement": "Inhibitory effect for the virus (CPE)", "setting": "Influenza A; 5%, 50 mg/ml", "result": "−"}, {"measurement": "Inhibitory effect for the virus (CPE)", "setting": "Influenza A; 10%, 100 mg/ml", "result": "−"}, {"measurement": "Inhibitory effect for the virus (CPE)", "setting": "Influenza A; 15%, 150 mg/ml", "result": "−"}, {"measurement": "Inhibitory effect for the virus (CPE)", "setting": "Influenza A; 20%, 200 mg/ml", "result": "−"}, {"measurement": "Inhibitory effect for the virus (CPE)", "setting": "ADV3; 1%, 10 mg/ml", "result": "+"}, {"measurement": "Inhibitory effect for the virus (CPE)", "setting": "ADV3; 5%, 50 mg/ml", "result": "+"}, {"measurement": "Inhibitory effect for the virus (CPE)", "setting": "ADV3; 10%, 100 mg/ml", "result": "+"}, {"measurement": "Inhibitory effect for the virus (CPE)", "setting": "ADV3; 15%, 150 mg/ml", "result": "+"}, {"measurement": "Inhibitory effect for the virus (CPE)", "setting": "ADV3; 20%, 200 mg/ml", "result": "+"}, {"measurement": "Inhibitory effect for the virus (CPE)", "setting": "RSV [2]; 1%, 10 mg/ml", "result": "+"}, {"measurement": "Inhibitory effect for the virus (CPE)", "setting": "RSV [2]; 5%, 50 mg/ml", "result": "+"}, {"measurement": "Inhibitory effect for the virus (CPE)", "setting": "RSV [2]; 10%, 100 mg/ml", "result": "+"}, {"measurement": "Inhibitory effect for the virus (CPE)", "setting": "RSV [2]; 15%, 150 mg/ml", "result": "+"}, {"measurement": "Inhibitory effect for the virus (CPE)", "setting": "RSV [2]; 20%, 200 mg/ml", "result": "+"}, {"measurement": "Inhibitory effect for the virus (CPE)", "setting": "HSV-II; 1%, 10 mg/ml", "result": "+"}, {"measurement": "Inhibitory effect for the virus (CPE)", "setting": "HSV-II; 5%, 50 mg/ml", "result": "+"}, {"measurement": "Inhibitory effect for the virus (CPE)", "setting": "HSV-II; 10%, 100 mg/ml", "result": "+"}, {"measurement": "Inhibitory effect for the virus (CPE)", "setting": "HSV-II; 15%, 150 mg/ml", "result": "+"}, {"measurement": "Inhibitory effect for the virus (CPE)", "setting": "HSV-II; 20%, 200 mg/ml", "result": "+"}]}, {"smiles": "NC(=O)c1ncn([C@@H]2O[C@H](CO)[C@@H](O)[C@H]2O)n1", "note": "[Ribavirin]", "values": [{"measurement": "Anti-virus effect of Ribavirin", "setting": "Influenza virus A3", "result": "+"}, {"measurement": "Anti-virus effect of Ribavirin", "setting": "[3]", "result": "+"}, {"measurement": "Anti-virus effect of Ribavirin", "setting": "RSV [4]", "result": "+"}, {"measurement": "Anti-virus effect of Ribavirin", "setting": "herpes I virus (HSV-I)", "result": "+"}, {"measurement": "Inhibitive rate (100%)", "setting": "[5]", "result": 24.68, "unit": "%"}, {"measurement": "Lung index (X ± SD)", "setting": "[5]; infection control 1.54 ± 0.25", "result": "1.16 ± 0.15"}]}]}
